This is an account of results in publication PMC9856044 (Biomolecules, 2023).

Test [1] has as its target Tel22 (5′-AGGG(TTAGGG)3–3′) G-quadruplex. Briefly: Fluorimetric titration with Tel22 in sodium cacodylate buffer (Na+ solution). The format is binding, human. As to the method:
(§1) Materials. Polynucleotides were purchased as noted: poly A–poly U, calf thymus ctDNA, poly(dAdT)2 and poly(dGdC)2 (Sigma-Aldrich, St. Louis, MI, USA). Polynucleotides were dissolved in Na-cacodylate buffer, I = 0.05 mol dm^−3, pH = 7.0. The calf thymus ctDNA was additionally sonicated and filtered through a […]. Polynucleotide concentration was determined spectroscopically as the concentration of phosphates. Spectrophotometric titrations were performed at pH = 7.0 (I = 0.05 mol dm^−3, sodium cacodylate buffer) by adding aliquots of polynucleotide solution into the solution of the studied compound for fluorimetric experiments and CD experiments were done by adding aliquots of the compound stock solution into the solution of a polynucleotide. In fluorimetric experiments, an excitation wavelength of λexc = 425, 431, 423, 427, 406 and 407 nm, respectively, was used to avoid the inner filter effect caused due to increasing absorbance of the polynucleotide. Emission was collected in the range λem = 400–700 nm. Values for Ka obtained by processing titration data using the Scatchard equation [27], all have satisfactory correlation coefficients (≥0.98).
(§2) Thermal melting curves for DNA, RNA and their complexes with studied compounds were determined as previously described by following the absorption change at 260 nm as a function of temperature. The absorbance of the ligands was subtracted from every curve and the absorbance scale was normalized. Tm values are the midpoints of the transition curves determined from the maximum of the first derivative and checked graphically by the tangent method. The ∆Tm values were calculated by subtracting Tm of the free nucleic acid from Tm of the complex. Every ∆Tm value here reported was the average of two measurements. The error in ∆Tm is ±0.5 °C. 5′-AGGG(TTAGGG)3–3′(Tel22) was obtained from IDT (Integrated DNA Technologies, Coralville, IA, USA). Tel22 was dissolved in 0.1 M either in sodium cacodylate or potassium phosphate buffer. The starting Tel22 oligonucleotide solution was first heated up to 95 °C for 10 min, then slowly cooled to 10 °C at the cooling rate of 1 °C/min to allow DNA oligonucleotide to adopt a G-quadruplex structure. The G-quadruplex structure was confirmed by thermal melting and CD spectra. The concentration of G quadruplex was expressed in terms of oligonucleotide structure. In fluorimetric titrations, aliquots of Tel 22 solution were added to the solution of ligands (c ~ 2 × 10^−7 M, in SI).
(§3) Binding constants (log Ka) and stoichiometry of complexes were calculated from the fluorimetric data using non-linear least-square program SPECFIT [46], in the concentration range that corresponded to 20–80% complex formed.

The target is the same in test [2]. Briefly: Fluorimetric titration with Tel22 in potassium phosphate buffer (K+ solution). The format is binding, human. As to the method: as §1, §2, §3
The test system of the next test is Tel22 G-quadruplex. The test is described as follows: Thermal melting of Tel22 in sodium cacodylate buffer. The format is binding, human. Conditions: Tel22, r = 1.0, sodium cacodylate buffer, pH = 7.0, I = 0.1 mol dm^−3; error ± 0.5 °C. As to the method:
as §2

A further test has as its system HeLa cells. Briefly: MTT cytotoxicity assay, HeLa. The format is cell-based. To be noted: Homo sapiens, 72 h incubation, ± SD. How it is done:
(§4) Human cervical carcinoma HeLa (GIBCO BRL, Invitrogen, Waltham, MA, USA), human melanoma MDA-MB-435S and human ovarian adenocarcinoma SK-OV-3 (ATCC-LGC Standards GmbH, Wesel, Germany) cell lines were purchased from indicated cell culture banks. Normal human skin fibroblasts were isolated from the upper arm of a donor at the Neurochemical Laboratory, Department of Chemistry and Biochemistry, School of Medicine, University of Zagreb. HeLa, MDA-MB-435S and fibroblasts were grown in Dulbecco’s Modified Eagle’s Medium (DMEM; Sigma-Aldrich, St. Louis, MI, USA) while the SK-OV-3 cell line was grown in McCoy’s 5A medium (Capricorn Scientific, Ebsdorfergrund, Germany). All media were supplemented with 10% fetal bovine serum (FBS; Sigma-Aldrich) and 50 I.U./mL penicillin and 50 μg/mL streptomycin. Cells were cultured in a humidified atmosphere of 5% CO2 at 37 °C and were sub-cultured every 3–4 days. HeLa, MDA-MB-435S, SK-OV-3 cells and fibroblasts were seeded in 96 well plates. Twenty-four hours later the cells were treated, in quadruplicate, with different concentrations of compounds (dissolved in DMSO, kept at 4 °C and protected from light). Following 72 h of incubation at 37 °C, the medium was aspired and modified 3-(4,5-dimethylthiazol-2-yl)-2,5-diphenyltetrazolium bromide (MTT) assay was used to determine the cytotoxic effect of the tested compounds. Three hours later, formazan crystals were dissolved in DMSO (0.17 mL/well), the plates were mechanically agitated for 20 min and the optical density at 600 nm was determined on a microtiter plate reader (Awareness Technology Inc., Palm City, FL, USA). The experiments were repeated three times.

The subject of another test is MDA-MB-435S cells. Briefly: MTT cytotoxicity assay, MDA-MB-435S. The format is cell-based. To be noted: Homo sapiens, 72 h incubation, ± SD. How it is done: as §4
Another test relates to poly(dAdT)2 (AT-DNA). The test is described as follows: Thermal melting of AT-DNA. The format is binding. Conditions: r [compound]/[nucleotide phosphate] = 0.1. How it is done: as §2
Binding abilities of 1–6 compounds were further explored by thermal melting experiments. […]

Where [3] appears, read: Tel22, sodium cacodylate buffer, pH = 7.0, I = 0.1 mol dm^−3, SPECFIT fit of fluorescence titration.

For `CN1/C(=C/c2[se]c3ccccc3[n+]2C)Sc2ccccc21` [Compound 3, 3-methyl-2-((3-methylbenzo[d]thiazol-2(3H)-ylidene)methyl)benzo[d][1,3]selenazol-3-ium methosulphate], in test [1] (setting [3]), the “logKa1 (L + G ⇆ LG)” value is 7.26 ± 0.41 and the “logKa2 (LG + G ⇆ LG2)” value was 5.93 ± 0.47. Moreover, in test [1] (binding affinities Tel22 vs duplex DNA, in both the Na+ and K+ solutions), the “Selectivity for G-quadruplex over duplex DNA” value came to 100 fold. Moreover, the “logKa (L + G ⇆ LG, 1:1 complex)” value in test [2] (Tel22, potassium phosphate buffer, pH = 7.0, I = 0.1 mol dm^−3, SPECFIT fit) is reported as 6.88 ± 0.05. In addition, the “∆Tm” value with Tel22 G-quadruplex was 0.5 °C. In the test on HeLa cells, this compound registered an IC50 of 1.02 ± 0.672 µM. The same compound displayed an IC50 with MDA-MB-435S cells of 0.987 ± 0.177 µM.

As for `C[n+]1c(/C=C2\Sc3ccccc3N2CCCS)[se]c2ccccc21` [Compound 5, 2-((3-(3-mercaptopropyl)benzo[d]thiazol-2(3H)-ylidene)methyl)-3-methylbenzo[d][1,3]selenazol-3-ium methosulphate], the “log Ka (indicated by steeper slope of titration curves)” value in test [2] (Tel22, K+ solution, no accurate fit possible) was not below 7. Besides, the “∆Tm” value with Tel22 G-quadruplex was 2.1 °C. Also, the “∆Tm value” in the test on poly(dAdT)2 (AT-DNA) was determined as 4 °C. Besides, the IC50 in the test on HeLa cells was found to be 27.9 ± 4.14 µM; in the test with MDA-MB-435S cells, 37.1 ± 3.02 µM.
